The values below come from patent US12077503B2, “Substituted cyclic amides and their use as herbicides” (FMC CORPORATION, priority 2015, dated 2024).

Common to all, as to format: in vivo
Experiment [1] concerns pigweed (Amaranthus retroflexus). In words: Test A preemergence. Conditions: Amaranthus retroflexus, pre-emergence, 240 h; for pest or weed control at 125 g/ha: 125 g ai/ha, preemergence, 0 to 100 scale where 0 is no effect and 100 is complete control, read-out: Pigweed plant response rating; for pest or weed control at 500 g/ha: 500 g ai/ha, Preemergence, visual injury vs untreated controls after approximately 10 d, read-out: Pigweed plant response rating (0 to 100 scale where 0 is no effect and 100 is complete control).

For experiment [2], the system named is ragweed (common ragweed, Ambrosia elatior). The experiment is described as follows: Test A preemergence. Conditions: Ambrosia artemisiifolia, pre-emergence, 240 h; for pest or weed control at 125 g/ha: 125 g ai/ha, preemergence, 0 to 100 scale where 0 is no effect and 100 is complete control, read-out: Ragweed plant response rating; for pest or weed control at 500 g/ha: 500 g ai/ha, Preemergence, visual injury vs untreated controls after approximately 10 d, read-out: Ragweed plant response rating (0 to 100 scale where 0 is no effect and 100 is complete control). The procedure, abridged: (§1)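 Visual injury, scored on a 0–100 scale relative to untreated controls, was recorded about 10 d after application. Treatments were a preemergence soil spray over planted seeds or a postemergence spray on plants at the one- to two-leaf stage, 2 to 10 cm tall, all in loam soil–sand blend in the greenhouse.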

In experiment [3] the test system is ryegrass, Italian (Italian ryegrass, Lolium multiflorum). The experiment is described as follows: Test A preemergence. The conditions noted are these: Lolium multiflorum, pre-emergence, 240 h; for pest or weed control at 125 g/ha: 125 g ai/ha, preemergence, 0 to 100 scale where 0 is no effect and 100 is complete control, read-out: Ryegrass, Italian plant response rating; for pest or weed control at 500 g/ha: 500 g ai/ha, Preemergence, visual injury vs untreated controls after approximately 10 d, read-out: Ryegrass, Italian plant response rating (0 to 100 scale where 0 is no effect and 100 is complete control). The procedure, abridged:
as §1

For experiment [4], the system named is giant foxtail (Setaria faberii). In words: Test A preemergence. The conditions noted are these: Setaria faberi, pre-emergence, 240 h; for pest or weed control at 125 g/ha: 125 g ai/ha, preemergence, 0 to 100 scale where 0 is no effect and 100 is complete control, read-out: Foxtail, Giant plant response rating; for pest or weed control at 500 g/ha: 500 g ai/ha, Preemergence, visual injury vs untreated controls after approximately 10 d, read-out: Foxtail, Giant plant response rating (0 to 100 scale where 0 is no effect and 100 is complete control). The procedure, abridged:
as §1

Experiment [5] relates to Kochia (Kochia scoparia). The experiment is described as follows: Test A preemergence. Conditions: Bassia scoparia, pre-emergence, 240 h; for pest or weed control at 125 g/ha: 125 g ai/ha, preemergence, 0 to 100 scale where 0 is no effect and 100 is complete control, read-out: Kochia plant response rating; for pest or weed control at 500 g/ha: 500 g ai/ha, Preemergence, visual injury vs untreated controls after approximately 10 d, read-out: Kochia plant response rating (0 to 100 scale where 0 is no effect and 100 is complete control). The procedure, abridged: as §1

The subject of experiment [6] is barnyardgrass (Echinochloa crus-galli). In words: Test A preemergence. Conditions: Echinochloa crus-galli, pre-emergence, 240 h; for pest or weed control at 125 g/ha: 125 g ai/ha, preemergence, 0 to 100 scale where 0 is no effect and 100 is complete control, read-out: Barnyardgrass plant response rating; for pest or weed control at 500 g/ha: 500 g ai/ha, Preemergence, visual injury vs untreated controls after approximately 10 d, read-out: Barnyardgrass plant response rating (0 to 100 scale where 0 is no effect and 100 is complete control). The gist of the method:
as §1

The test system of experiment [7] is pigweed (Amaranthus retroflexus). The experiment is described as follows: Test A postemergence. The conditions noted are these: Amaranthus retroflexus, post-emergence, 240 h, 125 g ai/ha, postemergence, visual injury rating after approximately 10 d; read-out: Pigweed plant response rating (0 to 100 scale, 0 no effect, 100 complete control). The procedure, abridged: as §1

The subject of experiment [8] is ragweed (common ragweed, Ambrosia elatior). The experiment is described as follows: Test A postemergence. Conditions: Ambrosia artemisiifolia, post-emergence, 240 h, 125 g ai/ha, postemergence, visual injury rating after approximately 10 d; read-out: Ragweed plant response rating (0 to 100 scale, 0 no effect, 100 complete control). The procedure, abridged:
as §1

The test system of experiment [9] is ryegrass, Italian (Italian ryegrass, Lolium multiflorum). In words: Test A postemergence. The conditions noted are these: Lolium multiflorum, post-emergence, 240 h, 125 g ai/ha, postemergence, visual injury rating after approximately 10 d; read-out: Ryegrass, Italian plant response rating (0 to 100 scale, 0 no effect, 100 complete control). The procedure, abridged:
as §1

Experiment [10] relates to giant foxtail (Setaria faberii). The experiment is described as follows: Test A postemergence. The conditions noted are these: Setaria faberi, post-emergence, 240 h, 125 g ai/ha, postemergence, visual injury rating after approximately 10 d; read-out: Foxtail, Giant plant response rating (0 to 100 scale, 0 no effect, 100 complete control). The procedure, abridged:
as §1

Experiment [11] has as its system Galium (catchweed bedstraw, Galium aparine). The experiment is described as follows: Test A postemergence. The conditions noted are these: Galium, post-emergence, 240 h, 125 g ai/ha, postemergence, visual injury rating after approximately 10 d; read-out: Galium plant response rating (0 to 100 scale, 0 no effect, 100 complete control). The gist of the method: as §1

Experiment [12] deals with corn (Zea mays). In words: Test A postemergence. The conditions noted are these: Zea mays, post-emergence, 240 h, 125 g ai/ha, postemergence, visual injury rating after approximately 10 d; read-out: Corn plant response rating (0 to 100 scale, 0 no effect, 100 complete control). The procedure, abridged: as §1
In experiment [13] the test system is Kochia (Kochia scoparia). The experiment is described as follows: Test A postemergence. The conditions noted are these: Bassia scoparia, post-emergence, 240 h, 125 g ai/ha, postemergence, visual injury rating after approximately 10 d; read-out: Kochia plant response rating (0 to 100 scale, 0 no effect, 100 complete control). The procedure, abridged: as §1
The subject of experiment [14] is barnyardgrass (Echinochloa crus-galli). In words: Test A postemergence. Conditions: Echinochloa crus-galli, post-emergence, 240 h, 125 g ai/ha, postemergence, visual injury rating after approximately 10 d; read-out: Barnyardgrass plant response rating (0 to 100 scale, 0 no effect, 100 complete control). The procedure, abridged: as §1
Experiment [15] deals with wheat (Triticum aestivum). In words: Test A postemergence. The conditions noted are these: Triticum aestivum, post-emergence, 240 h, 125 g ai/ha, postemergence, visual injury rating after approximately 10 d; read-out: Wheat plant response rating (0 to 100 scale, 0 no effect, 100 complete control). The gist of the method:
as §1

In the case of `Cc1cc(F)cc([C@H]2CN(C)C(=O)[C@@H]2C(=O)Nc2cccc(F)c2F)c1` [Compound 849], the pest or weed control at 125 g/ha in [1] came to 40%; in experiment [2], 80%; in experiment [3], 80%; in [4] it was 90%; in [5], 80%; in experiment [6], 90%. Moreover, the pest or weed control at 125 g/ha in [7] turned out to be 0%; in [8] it was 0%; in [9], 0%; in experiment [10], 90%; in experiment [11] it was 60%; in experiment [13], 0%. Also, the pest or weed control at 125 g/ha in experiment [14] was 90%. In addition, the pest or weed control at 500 g/ha in [1] was 50%; in experiment [2], 90%; in experiment [3], 90%; in [4], 90%; in [5], 80%; in [6], 90%. Moreover, the plant injury at 125 g/ha was found to be 70% in experiment [12] and 30% in [15].
For `COc1ccccc1NC(=O)[C@H]1C(=O)N(C)C[C@@H]1c1ccc(C(F)(F)F)cc1` [Compound 843], the pest or weed control at 125 g/ha in [1] stood at 0%; in experiment [2], 0%; in experiment [3], 0%; in experiment [4] it was 90%; in [5], 60%; in [6], 60%. The pest or weed control at 125 g/ha in [7] was 20%; in experiment [8], 0%; in experiment [9], 0%; in experiment [10] it was 70%; in experiment [11], 30%; in [13], 40%. For the same molecule, the pest or weed control at 125 g/ha in experiment [14] was 40%. Also, the pest or weed control at 500 g/ha in experiment [1] came out at 40%; in [2] it was 30%; in [3], 50%; in experiment [4] it was 90%; in experiment [5], 70%; in experiment [6] it was 80%. Also, the plant injury at 125 g/ha in experiment [12] and in experiment [15] was 0% in each case.
In the case of `CN1CC(c2cccc(I)c2)C(C(=O)Nc2ccccc2F)C1=O` (stereo not drawn) [Compound 846], the pest or weed control at 125 g/ha in experiment [1] turned out to be 0%; in [2] it was 0%; in experiment [3], 60%; in experiment [4], 90%; in experiment [5], 20%; in experiment [6], 90%. The pest or weed control at 125 g/ha in experiment [7] was found to be 0%; in [8], 0%; in [9] it was 70%; in [10], 90%; in experiment [11], 0%; in experiment [13], 40%. In addition, in [14], the pest or weed control at 125 g/ha amounted to 90%. Also, the pest or weed control at 500 g/ha in experiment [1] was determined as 0%; in experiment [2], 0%; in experiment [3], 70%; in experiment [4], 90%; in experiment [5], 70%; in experiment [6], 90%. The values for the plant injury at 125 g/ha in experiment [12] and in experiment [15] were 60% and 0%, respectively.
